Assay results published in article PMC11187542, “Identification of fragments targeting SMYD3 using highly sensitive kinetic and multiplexed biosensor-based screening” (RSC Medicinal Chemistry, 2024).
Several values for one entry are separate records, joined by “and”; a condition that tells them apart may be missing. Equal entries are not always repeated.

Assays:
[1] = target: T1, SMYD3 (Homo sapiens, UniProt Q9H7B4); test: X-ray crystallography of SMYD3-fragment complexes (co-crystallization and soaking); design: key to XRC: success or failure of crystallization in complex with SMYD3: The success (+) or failure (−) of crystallization in complex with SMYD3; The success (+) or failure (−) of crystallization in complex with SMYD3
T1 construct: Full length recombinant SMYD3 was produced as previously reported; made in house; host or cells: E. coli BL21(DE3), in some cases Rosetta 2
T1 sequence (Q9H7B4 1-428): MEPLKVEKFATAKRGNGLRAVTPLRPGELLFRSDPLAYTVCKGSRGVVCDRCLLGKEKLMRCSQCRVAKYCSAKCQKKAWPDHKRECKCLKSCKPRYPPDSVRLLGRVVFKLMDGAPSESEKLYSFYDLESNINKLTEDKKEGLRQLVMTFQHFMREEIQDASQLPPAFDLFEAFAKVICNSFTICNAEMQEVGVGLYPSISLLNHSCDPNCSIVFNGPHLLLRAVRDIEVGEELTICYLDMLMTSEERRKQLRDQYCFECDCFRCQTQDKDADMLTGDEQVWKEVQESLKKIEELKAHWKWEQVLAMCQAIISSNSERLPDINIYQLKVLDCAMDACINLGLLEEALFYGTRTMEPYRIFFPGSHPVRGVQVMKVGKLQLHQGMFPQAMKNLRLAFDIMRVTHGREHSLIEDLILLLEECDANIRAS
Text: To identify binding sites and binding modes, the fragment hits (Table 1) were used in both co-crystallization and soaking experiments to obtain SMYD3-fragment co-crystals for X-ray crystallographic analyses. Diffraction data of 1.6–1.9 Å maximum resolution were obtained for four fragments (Fig. 5). For data collection and refinement statistics, see ESI, ^† Table S1.
Four new sites were thus identified.
Polder (F0–Fc) maps (Fig. 5, right) were generated to establish whether the observed electron density features were more likely to represent background noise or to belong to bound fragments. These omit maps are generated upon exclusion of the ligand and surrounding solvent from the model, which aids in visualizing weak densities. […] For fragments FL01507, FL08580 and FL08619, a comparison of the maps obtained after refinement with a bound fragment with maps obtained upon their replacement with either glycerol or acetate, which were present in the crystallization or cryo-protectant solutions, respectively, was required.
8 mg mL^−1 of SMYD3 in storage buffer (TBS buffer containing 2 mM DTT) was pre-incubated for 4–8 hours with 5 mM of a respective fragment hit compound and 10% (v/v) DMSO. Subsequently, 1 μL of this solution was mixed with an equal volume of reservoir solution (100 mM Tris, 100 mM magnesium acetate, 15–17% PEG3350, pH 8.25–8.75) to create the drops for co-crystallization by hanging drop vapour diffusion performed at 20 °C. Needle-like co-crystals nucleated within 12 h of equilibration against the reservoir. In addition, crystals of SMYD3 obtained in ligand-free crystallization setups were soaked with fragment solution prior to freezing. All crystals were cryo-protected via brief immersion in reservoir solution supplemented with 10% (v/v) glycerol.
Diffraction data were collected at beamline ID23-1 of the European Synchrotron Radiation Facility (ESRF, Grenoble, France). Data were indexed, auto-processed, scaled and merged on-site using the implemented data processing routines and software. Fragment-associated electron density features were identified upon data analysis with the Pipedream system (version 1.4.0, Global Phasing Ltd, Cambridge, United Kingdom), which includes data processing with autoPROC,[14] molecular replacement with Phaser,[15] structure refinement with BUSTER version 2.10.4 (Global Phasing Ltd, Cambridge, United Kingdom), automated ligand fitting with Rhofit (Global Phasing Ltd, Cambridge, United Kingdom) and BUSTER post-refinement.[16] Refinement was done with Phenix,[17] and model building with Coot.[18] (F0–Fc) difference density maps for models, from which ligand atoms and surrounding water molecules were removed, were generated using Phenix.

[2] = target: T1, SMYD3; test: GCI biosensor multi cycle kinetic confirmation of hits; type: binding; details: two-fold serial dilution starting at 250 μM, 15 °C, global fit 1:1 model
Description: Selected screening hits were also re-tested by conventional multi cycle kinetic analysis in order to confirm the interactions (some compounds were no longer available). Two variants of the GCI biosensor assay were set up, using different immobilisation levels, to allow the confirmation of hits over a broad range of affinities. […] The kinetics varied for the selected hits (ESI, ^† Fig. S2). All hits were not confirmed (ESI, ^† Fig. S1b).
All interaction kinetic experiments were conducted with a GCI–flow-based biosensor (WAVEdelta, Creoptix AG/Malvern Panalytical) and PCH WAVEchip (Creoptix AG/Malvern Panalytical) sensor chips. The sensor chips were conditioned using injections of borate buffer (10 mM sodium tetraborate pH 8.5, 1 M NaCl). The running buffer composition, if not otherwise stated, was TBS buffer (50 mM Tris, 150 mM NaCl, 0.5 mM TCEP, 0.05% Tween 20, 1% DMSO, pH 8). SMYD3 was diluted to the desired concentration in 10 mM bis-Tris (pH 7.0) and amine coupled to the sensor surface of the PCH sensor chip. The sensor chip was functionalized at 25 °C by immobilising SMYD3 with EDC and NHS (Xantec) using an injection time of 420 s and a flow rate of 10 μL min^−1. The immobilisation levels ranged from 5000 pg mm^−2 to 18 500 pg mm^−2 surface mass to enable analysis of fragments spanning a broad range of affinities. After immobilization, the surface was deactivated with a running buffer containing 50 mM Tris for 420 s. The GCI data referencing and analysis were performed using WAVEcontrol V4.5 (Creoptix AG).
Kinetic measurements with controls and fragments were performed at 15 °C. Analysis of controls and follow up of hits was done using the multi cycle kinetic (MCK) injection of a concentration series for the same time, with a two-fold serial dilution starting at 250 μM for each compound. Solvent correction was performed ranging from 0.5–1.8% DMSO. Blank samples of the running buffer, 1× TBS (50 mM Tris, 150 mM NaCl, 0.5 mM TCEP, 0.05% Tween 20, 1% DMSO, pH 8), were injected during the measurements every fifth cycle. The experimental design illustrated in Fig. 1 was used for the screening against all four surfaces. The sensorgrams were adjusted to account for solvent correction and blank subtraction. Kinetic fitting was performed with the Direct Kinetics engine of WAVEcontrol software V4.5 (Creoptix AG) with a suitable fitting model.
FL06268 Superstoichiometric and
Figure 1. Examples of sensorgrams from multicycle kinetic experiments with initial fragment hits and SMYD3. A)
Fragments for which crystal structures of the complex with SMYD3 were obtained. A global fit of the sensorgrams
crystal structures were not obtained. […]

XRC: success or failure of crystallization in complex with SMYD3 ([1]; 5 mM fragment co-crystallization or soaking): (+)
Outcome of multicycle kinetic experiment (sensorgram assessment) [2]: Superstoichiometric
Structure (SMILES): Cn1cnc(S(N)(=O)=O)c1 [FL06268]
Site (binding site in SMYD3 crystal structure) ([1]; four sites defined (1–4, Fig. 6) plus active site): both the active site (green surface) and site 2 and 2 + active
